Assay results reported in PubChem BioAssay (NCI).
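Briefly, cells in 96-well plates were exposed to five compound concentrations for 48 h, and endpoints were estimated by linear interpolation. GI50 marks 50% less growth. The concentration for full growth arrest is given as TGI.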

How the values were obtained:
Test in all cases: inhibition of tumour cell growth, NCI panel, 48 h
[1] = tested on: HS 578T breast
[2] = tested on: A498 renal
[3] = tested on: SK-MEL-28 melanoma
[4] = tested on: HT29 colon
[5] = tested on: MCF7 breast
[6] = tested on: T-47D breast
[7] = tested on: RXF 393 renal
[8] = tested on: MDA-MB-231 breast
[9] = tested on: KM12 colon
[10] = tested on: SR leukemia

SMILES	GI50 [1] [µM]	TGI [1] [µM]	GI50 [2] [µM]	TGI [2] [µM]	GI50 [3] [µM]	TGI [3] [µM]	GI50 [4] [µM]	TGI [4] [µM]	GI50 [5] [µM]	TGI [5] [µM]	GI50 [6] [µM]	TGI [6] [µM]	GI50 [7] [µM]	TGI [7] [µM]	GI50 [8] [µM]	TGI [8] [µM]	GI50 [9] [µM]	TGI [9] [µM]	TGI [10] [µM]	GI50 [10] [µM]
COc1ccc(/C=C2/N=C(c3ccccc3)N(c3c(C)n(C)n(-c4ccccc4)c3=O)C2=O)cc1OC	60	> 100	> 100	> 100	> 100	> 100	> 100	> 100	70.5	> 100	77.5	> 100	> 100	> 100	> 100	> 100	> 100	> 100	–	–
N#C/C1=C(\N)CCSSSC1	–	–	–	58	–	> 100	–	> 100	–	–	–	–	–	> 100	–	–	–	> 100	> 100	–
CCOc1ccccc1NC(=O)C(=O)CC(=O)c1sc(Nc2nnc(-c3ccc(Cl)c(Cl)c3)o2)nc1C	–	–	–	> 100	–	> 100	–	> 100	–	–	–	–	–	> 100	–	–	–	> 100	> 100	–
OCC1OC(c2nc(C3=NCCCN3)cs2)C(O)C1O (configuration not stated)	–	–	–	> 100	–	> 100	–	> 100	–	–	–	–	–	–	–	–	–	> 10	–	–
O=C(/C=C/c1cccc2ccccc12)c1ccccc1Cl	–	–	–	29.5	–	34	–	26.4	–	–	–	–	–	32.4	–	–	–	21.3	11.3	–
C1=CC(N(c2ccccc2)C2C=CCCC2)CCC1 (configuration not stated)	–	–	–	> 100	–	> 100	–	> 100	–	–	–	–	–	> 100	–	–	–	–	–	–
CCCC(=O)Nc1cc2c3c(c1)CCCN3CCC2	–	> 10	–	–	–	> 10	–	> 10	–	> 10	–	> 10	–	–	–	> 10	–	> 10	> 10	–
CCC[CH2][Sn]([Cl])([CH2]CCC)[CH2]CCC	–	–	–	–	0.139	0.269	0.0396	0.143	–	–	–	–	–	–	–	–	0.123	0.264	0.596	0.066
CCCc1nc(NC#N)nc(C(=O)Nc2ccccc2)c1CC	–	–	–	> 100	–	> 100	–	> 100	–	–	–	–	–	> 100	–	–	–	> 100	–	–
CC12CP(=O)(c3ccccc3)CC1C2(Cl)Cl (configuration not stated)	–	–	–	–	–	> 100	–	> 100	–	–	–	–	–	> 100	–	–	–	> 100	–	–
CO/N=C(\COc1ccc2c(c1)oc(=O)c1cc(OC)ccc12)c1ccc(OC)cc1	> 100	> 100	> 100	> 100	> 100	> 100	> 100	> 100	> 100	> 100	> 100	> 100	> 100	> 100	> 100	> 100	> 100	> 100	–	–
CCOC(=O)C(=[N+]=[N-])[Si](C)(C)C	–	–	–	> 100	–	45.6	–	> 100	–	–	–	–	–	> 100	–	–	–	> 100	–	–
CCOc1ccc(NC(=O)CC#N)cc1	–	–	–	> 100	–	> 100	–	> 100	–	–	–	–	–	> 100	–	–	–	> 100	> 100	–
COc1cc(-n2cc(-c3ccc(F)cc3)[nH]c2=O)cc(OC)c1OC	69.3	> 100	–	–	> 100	> 100	> 100	> 100	> 100	> 100	> 100	> 100	> 100	> 100	49.5	> 100	> 100	> 100	–	–
O=C(c1ccccc1Br)C(F)(F)F	–	> 100	–	> 100	–	> 100	–	> 100	–	> 100	–	> 100	–	–	–	> 100	–	> 100	> 100	–
O=C(Nc1nc(=S)c2c(ncn2CCOC(=O)c2ccccc2)[nH]1)c1ccccc1	–	–	–	> 100	–	> 100	–	> 100	–	–	–	–	–	59.2	–	–	–	> 100	–	–
CC1CN(C(=O)CN2CCC(CCCCN(C)C)CC2)c2ccccc2NC1=O (configuration not stated)	–	–	–	> 100	–	> 100	–	> 100	–	–	–	–	–	–	–	–	–	–	> 100	–
[Cl][Hg][c]1cc[c]([Hg][Cl])o1	3.71	> 100	20	34.2	5.6	19.9	2.99	9.88	0.529	8.84	1.18	3.66	1.41	2.92	1.9	5.09	10.6	24.4	–	–
COC(=O)C(Cc1nc2ccc(Cl)cc2[nH]c1=O)/C(=N\N)C(=O)Nc1cc(C)c(Cl)cc1S(=O)(=O)O (configuration not stated)	–	–	–	> 100	–	> 100	–	> 100	–	–	–	–	–	–	–	–	–	> 100	> 100	–
CC(=O)c1sc(Nc2nnc(-c3ccc(-c4nnc(Nc5nc(C)c(C(C)=O)s5)o4)cc3)o2)nc1C	–	–	–	> 100	–	> 100	–	> 100	–	–	–	–	–	> 100	–	–	–	> 10	> 100	–
Cc1cc(Cl)ccc1NC(=O)C(=O)Cc1nc2ccccc2o1	–	–	–	> 100	–	> 100	–	> 100	–	–	–	–	–	> 100	–	–	–	> 100	–	–
Cn1cc(-c2csc(-c3c[nH]c4ccc(F)cc34)n2)c2cnccc21	2.26	5.08	1.87	3.31	1.86	3.29	1.69	3.29	–	–	–	–	1.78	3.25	1.46	2.93	1.83	3.49	–	–
O=C(CSc1nc2ccccc2nc1-c1ccccc1)Nc1ccc(F)cc1	28.1	63.8	41.7	> 100	63.9	> 100	21.5	96.5	57.2	> 100	19.2	99.4	18.6	68.5	34.3	> 100	44.8	> 100	–	–
CCN1CCC(O)(c2ccc(OC)cc2)C(C(=O)c2ccc(OC)cc2)C1 (configuration not stated)	–	–	–	–	–	10.6	–	48.1	–	–	–	–	–	–	–	–	–	42.1	67.1	–
